US7179825B2, “Retinoic acid mimetic anilides” (Janssen Pharmaceutica N.V., priority 1997, dated 2007)

Experiments:
[1] = test system: metabolism of retinoic acid in human breast cancer cells; experiment: Inhibition of retinoic acid (RA) metabolism (Example C.1); assay type: cell-based; conditions: MCF-7 human breast cancer cells, 3H-RA as substrate; concentration needed to reduce the amount of metabolites to 50% of the control
Method in brief: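 Test compound (in 1% DMSO) added at several concentrations to MCF-7 cell suspensions fed ³H-RA, after RA induction of metabolism one day earlier. Scintillation counting of the separated polar metabolite fraction; IC50 = concentration giving 50% of control metabolite level.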

[2] = test system: Ovariectomized rats; experiment: Vaginal keratinization test on ovariectomized rats (Example C.2); assay type: in vivo; conditions: estradiol undecylate induced keratinization, per os once daily on days 1-3, active dose = 50% of rats show complete suppression
Method in brief: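 Value is the lowest oral dose (mg/kg) at which half of tested rats show complete suppression of estradiol undecylate-induced vaginal keratinization by histology. Ovariectomized rats received 100 μg/100 g estradiol undecylate s.c., then compound or PEG 200 vehicle p.o. daily for three days; sacrifice one day later.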

Structure (SMILES) | IC50 [1] | LAD (lowest active dose) [2]
CC(C)C(c1ccc(NC(=O)C2(c3ccccc3)CCCCC2)cc1)n1ccnc1 (centres unmarked) [Compound 200] | 44.3 nM | >10.00 mg/kg
CC/C(=C(\C)C(=O)Nc1ccc(C(C(C)C)n2ccnc2)cc1)c1ccccc1 (centres unmarked) [Compound 203] | 22.8 nM | >10.00 mg/kg
COCC(=O)Nc1ccc(C(C(C)C)n2ccnc2)cc1 (centres unmarked) [Compound 212] | 4.07 nM | 20.00 mg/kg
CC(C)C(c1ccc(NC(=O)c2ccc3nccnc3c2)cc1)n1ccnc1 (centres unmarked) [Compound 214] | 3.37 nM | 20.00 mg/kg
CC(C)C(c1ccc(NC(=O)C2CCc3ccccc3O2)cc1)n1ccnc1 (centres unmarked) [Compound 217] | 5.14 nM | 10.00 mg/kg
CC(C)C(c1ccc(NC(=O)c2cccc(F)c2)cc1)n1ccnc1 (centres unmarked) [Compound 221] | 1.08 nM | 10.00 mg/kg
CC(C)C(c1ccc(NC(=O)CSc2ncccn2)cc1)n1ccnc1 (centres unmarked) [Compound 224] | 4.73 nM | >10.00 mg/kg
CC(C)C(c1ccc(NC(=O)c2nccc3ccccc23)cc1)n1ccnc1 (centres unmarked) [Compound 229] | 1.64 nM | >10.00 mg/kg
CC(C)C(c1ccc(NC(=O)C2=COc3ccccc3O2)cc1)n1ccnc1 (centres unmarked) [Compound 234] | 3.01 nM | 10.00 mg/kg
CC(C)C(c1ccc(NC(=O)C2Oc3ccccc3O2)cc1)n1ccnc1 (centres unmarked) [Compound 248] | 1.79 nM | 2.50 mg/kg
CC(O)C(=O)Nc1ccc(C(C(C)C)n2ccnc2)cc1 (centres unmarked) [Compound 249] | 75.8 nM | 5.00 mg/kg
Cc1onc(-c2ccccc2)c1C(=O)Nc1ccc(C(C(C)C)n2ccnc2)cc1 (centres unmarked) [Compound 250] | 14.9 nM | >10.00 mg/kg
CC(C)C(c1ccc(NC(=O)Cc2cccnc2)cc1)n1ccnc1 (centres unmarked) [Compound 251] | 3.93 nM | 10.00 mg/kg
CNC(=O)Nc1ccc(C(C(C)C)n2ccnc2)cc1 (centres unmarked) [Compound 267] | 7.75 nM | >10.00 mg/kg
CC(C)C(c1ccc(NC(=O)NCc2ccccc2)cc1)n1ccnc1 (centres unmarked) [Compound 269] | 2.66 nM | >10.00 mg/kg
CC(C)C(c1ccc(NC(=O)NCc2ccc(Cl)cc2)cc1)n1ccnc1 (centres unmarked) [Compound 273] | 52.7 nM | >10.00 mg/kg
CC(C)CCC(c1ccc(NC(=O)Cc2ccc(Cl)cc2)cc1)n1ccnc1 (centres unmarked) [Compound 355] | > 100 nM | >10.00 mg/kg
O=C(Cc1ccc(Cl)cc1)Nc1ccc(C(c2ccccc2)n2ccnc2)cc1 (centres unmarked) [Compound 357] | > 100 nM | >10.00 mg/kg
O=C(Cc1ccc(Cl)cc1)Nc1ccc(C(c2cccc(C(F)(F)F)c2)n2ccnc2)cc1 (centres unmarked) [Compound 361] | > 100 nM | 10.00 mg/kg
O=C(Cc1ccc(Cl)cc1)Nc1ccc(C(C2CCCCC2)n2ccnc2)cc1 (centres unmarked) [Compound 362] | 14.3 nM | 10.00 mg/kg
CCCC(c1ccc(NC(=O)Cc2ccc(Cl)cc2)cc1)n1ccnc1 (centres unmarked) [Compound 363] | 1.42 nM | >10.00 mg/kg

Structure (SMILES) | IC50 [1] | LAD (lowest active dose) [2]
CC(C)(C)C(c1ccc(NC(=O)Cc2ccc(Cl)cc2)cc1)n1ccnc1 (centres unmarked) [Compound 365] | 1.08 nM | 10.00 mg/kg
CCC(c1ccc(NC(=O)Cc2ccc(Cl)cc2)cc1)n1ccnc1 (centres unmarked) [Compound 372] | 1.97 nM | 5.00 mg/kg
O=C(Nc1ccc(C(c2ccccc2)n2ccnc2)cc1)C(O)c1ccccc1 (centres unmarked) [Compound 420] | 83.8 nM | >20.00 mg/kg
O=C(Nc1ccc(C(c2ccc(Cl)cc2)n2ccnc2)cc1)C(O)c1ccccc1 (centres unmarked) [Compound 423] | 40.8 nM | 20.00 mg/kg
O=C(Nc1ccc(C(c2ccccc2)n2ccnc2)cc1)C1COc2ccccc2O1 (centres unmarked) [Compound 425] | 38.1 nM | >10.00 mg/kg
O=C(CC1COc2ccccc2O1)Nc1ccc(C(c2ccccc2)n2ccnc2)cc1 (centres unmarked) [Compound 426] | > 100 nM | >10.00 mg/kg
CCC(C)C(c1ccc(NC(=O)Cc2ccc(O)c(OC)c2)cc1)n1ccnc1 (centres unmarked) [Compound 432] | 0.81 nM | >2.50 mg/kg
CC(C)C(c1ccc(NC(=O)C(=Cc2ccccc2)c2ccccc2)cc1)n1ccnc1 (centres unmarked) [Compound 454] | 52.5 nM | >20.00 mg/kg
CC(C)/C(=C\c1ccccc1)C(=O)Nc1ccc(C(C(C)C)n2ccnc2)cc1 (centres unmarked) [Compound 471] | > 100 nM | >10.00 mg/kg
C/C(=C\c1ccccc1)C(=O)Nc1ccc(C(CCC(C)C)n2ccnc2)cc1 (centres unmarked) [Compound 475] | > 100 nM | >10.00 mg/kg
CC(=Cc1ccccc1)C(=O)Nc1ccc(C(CC(C)(C)C)n2ccnc2)cc1 (centres unmarked) [Compound 476] | 35.5 nM | >10.00 mg/kg
C/C(=C\c1ccccc1)C(=O)Nc1ccc(C(/C=C/C(C)C)n2ccnc2)cc1 (centres unmarked) [Compound 479] | > 100 nM | >10.00 mg/kg
CCCC(CCC)C(c1ccc(NC(=O)/C(C)=C/c2ccccc2)cc1)n1ccnc1 (centres unmarked) [Compound 486] | 27.7 nM | 5.00 mg/kg
CC(=O)Nc1ccc(C(c2cccc(C(F)(F)F)c2)n2ccnc2)cc1 (centres unmarked) [Compound 524] | > 1000 nM | 20.00 mg/kg
C/C(=C\c1ccncc1)C(=O)Nc1ccc(C(C(C)C)n2ccnc2)cc1 (centres unmarked) [Compound 576] | 20.1 nM | 10.00 mg/kg
C/C(=C\c1ccc(C(F)(F)F)cc1)C(=O)Nc1ccc(C(C(C)C)n2ccnc2)cc1 (centres unmarked) [Compound 580] | 31.3 nM | 10.00 mg/kg
C/C(=C\C1CCCCC1)C(=O)Nc1ccc(C(C(C)C)n2ccnc2)cc1 (centres unmarked) [Compound 581] | > 100 nM | 20.00 mg/kg
COc1cccc(/C=C(\C)C(=O)Nc2ccc(C(C(C)C)n3ccnc3)cc2)c1 (centres unmarked) [Compound 584] | 6.51 nM | 10.00 mg/kg
C/C(=C\C(C)C)C(=O)Nc1ccc(C(C(C)C)n2ccnc2)cc1 (centres unmarked) [Compound 588] | 48.8 nM | 10.00 mg/kg
CC(=Cc1cc2ccccc2o1)C(=O)Nc1ccc(C(C(C)C)n2ccnc2)cc1 (centres unmarked) [Compound 600] | 36.7 nM | >10.00 mg/kg
CC(=O)Nc1ccc(/C=C(\C)C(=O)Nc2ccc(C(C(C)C)n3ccnc3)cc2)cc1 (centres unmarked) [Compound 612] | 16.8 nM | 10.00 mg/kg

Structure (SMILES) | IC50 [1] | LAD (lowest active dose) [2]
CC(=O)Nc1ccc(C(c2cccc(C(F)(F)F)c2)n2cncn2)cc1 (centres unmarked) [Compound 613] | 1800 nM | >20.00 mg/kg
CC(=O)Nc1ccc(C(c2cccc(F)c2)n2cncn2)cc1 (centres unmarked) [Compound 615] | > 1000 nM | >20.00 mg/kg
COc1ccc(CC(=O)Nc2ccc(C(n3cncn3)C(C)(C)C)cc2)cc1OC.O (centres unmarked) [Compound 642] | 1.16 nM | 2.50 mg/kg
CC(C)C(c1ccc(NC(=O)Cc2ccccc2)cc1)n1ccnc1 (centres unmarked) [Compound 650] | 4.86 nM | 10.00 mg/kg
CC(C)C(c1ccc(NC(=O)Cc2ccc(Cl)cc2)cc1)n1ccnc1 (centres unmarked) [Compound 651] | 10.5 nM | 5.00 mg/kg
CC(C)C(c1ccc(NC(=O)Cc2cccc(F)c2)cc1)n1ccnc1 (centres unmarked) [Compound 656] | 1.47 nM | 10.00 mg/kg
CC(C(=O)Nc1ccc(C(C(C)C)n2ccnc2)cc1)c1ccccc1 (centres unmarked) [Compound 657] | 5.36 nM | >10.00 mg/kg
COc1ccc(CC(=O)Nc2ccc(C(C(C)C)n3ccnc3)cc2)cc1 (centres unmarked) [Compound 662] | 0.358 nM | 5.00 mg/kg
CC(C)C(c1ccc(NC(=O)Cc2ccccc2Cl)cc1)n1ccnc1 (centres unmarked) [Compound 664] | 1.56 nM | 5.00 mg/kg
CC(C)C(c1ccc(NC(=O)Cc2ccc(O)cc2)cc1)n1ccnc1 (centres unmarked) [Compound 668] | 3.16 nM | 5.00 mg/kg
CC(C)C(c1ccc(NC(=O)C(O)c2ccc(Cl)cc2)cc1)n1ccnc1 (centres unmarked) [Compound 669] | 8.66 nM | 5.00 mg/kg
O=C(C=C(c1ccccc1)c1ccccc1)Nc1ccc(C(c2ccc(Cl)cc2)c2ccccn2)cc1 (centres unmarked) [Compound 680] | 12.1 nM | >20.00 mg/kg
C/C(=C\c1ccccc1)C(=O)Nc1ccc(C(c2ccccn2)C(C)C)cc1 (centres unmarked) [Compound 682] | > 100 nM | >20.00 mg/kg
Cc1nccn1C(c1ccc(NC(=O)Cc2ccc(Cl)cc2)cc1)C(C)C (centres unmarked) [Compound 695] | > 100 nM | >10.00 mg/kg
CC(C)C(c1ccc(NC(N)=Nc2ccccc2)cc1)n1ccnc1 (centres unmarked) [Compound 743] | 11 nM | >10.00 mg/kg
CC(C)C(c1ccc(NC(=O)Cc2ccc(Cl)cc2)cc1)(C(C)C)n1cncn1 [Compound 745] | 3.87 nM | >5.00 mg/kg
CC(C)C(c1ccc(NC(=O)Nc2cccc(F)c2)cc1)(C(C)C)n1ccnc1 [Compound 746] | > 100 nM | >5.00 mg/kg
CC(=Cc1ccccc1)C(=O)Nc1ccc(C(C(C)C)n2cnnc2)cc1 (centres unmarked) [Compound 749] | 126 nM | >20.00 mg/kg
C/C(=C\c1ccccc1)C(=O)Nc1ccc(C(C(C)C)(C(C)C)n2ccnc2)cc1 [Compound 751] | 67 nM | 10.00 mg/kg
